According to US20110015119A1, “NOVEL SEMI-SYNTHETIC GLYCOPEPTIDES AS ANTIBACTERIAL AGENTS” (LEAD THERAPEUTICS, INC., priority 2009, published 2011):
≈ marks a conversion by molar mass, not a printed value. Where two headings read alike, the source gives them in different places.

How the values were obtained:
Type in all cases: cell-based
[1] = test system: Staphylococcus aureus 2012 (VISA); assay: MIC by broth microdilution, SA 2012; conditions: Staphylococcus aureus 2012 (VISA); class symbols; read-out: MIC SA 2012
Protocol: (§1) Antibacterial activity in vitro is investigated by broth microdilution method in Meuller-Hinton broth as recommended by NCCLS. All strains tested are clinical isolates either sensitive or resistant to natural glycopeptides. MIC values were determined using the CLSI-recommended broth microdilution procedure (Clinical and Laboratory Standards Institute, Methods for Dilution Antimicrobial Susceptibility Tests for Bacteria That Grow Aerobically; Approved Standard-Seventh Edition.). Automated liquid handlers (Multidrop 384, Labsystems, Helsinki, Finland; Biomek 2000 and Multimek 96, Beckman Coulter, Fullerton Calif.) were used to conduct serial dilutions and liquid transfers. The MIC value for vancomycin is given for comparison. The abbreviations for organisms tested are as follow: SA 100—Staphylococcus aureus 100 (ATCC 29213); SA 757—Staphylococcus aureus 757 (MRSA); SA 2012—Staphylococcus aureus 2012 (VISA); SE 835—Staphylococcus epidermidis 835; SE 831—Staphylococcus epidermidis 831 (MRSE); EFc 101—Enterococcus faecalis 101 (ATCC 29212); EFc 848—Enterococcus faecalis 848 (VRE, Van A); EFcm 800—Enterococcus faecium 800; EFcm 752—Enterococcus faecium 752 (VRE, Van A); SPNE 1195—Streptococcus pneumoniae 1195 (ATCC 49619); SPY 712—Streptococcus pyogenes 712.

[2] = test system: Streptococcus pyogenes 712; assay: MIC by broth microdilution, SPY 712
Protocol: as §1

[3] = test system: Enterococcus faecalis 848 (VRE, Van A); assay: MIC by broth microdilution, EFc 848; conditions: Enterococcus faecalis 848 (VRE, Van A); class symbols; read-out: MIC E FC 848
Protocol: as §1

[4] = test system: Staphylococcus epidermidis 835; assay: MIC by broth microdilution, SE 835
Protocol: as §1

[5] = test system: Enterococcus faecium 752 (VRE, Van A); assay: MIC by broth microdilution, EFcm 752; conditions: Enterococcus faecium 752 (VRE, Van A); class symbols; read-out: MIC E FCM 752
Protocol: as §1

[6] = test system: Streptococcus pneumoniae 1195 (ATCC 49619); assay: MIC by broth microdilution, SPNE 1195
Protocol: as §1

[7] = test system: Staphylococcus epidermidis 831 (MRSE); assay: MIC by broth microdilution, SE 831; conditions: read-out: MIC SE 831
Protocol: as §1

[8] = test system: Staphylococcus aureus 757 (MRSA); assay: MIC by broth microdilution, SA 757; conditions: read-out: MIC SA 757
Protocol: as §1

Enterococcus faecium 800 = assay: MIC by broth microdilution, EFcm 800
Protocol: as §1

[9] = test system: Enterococcus faecalis 101 (ATCC 29212); assay: MIC by broth microdilution, EFc 101; conditions: class symbols
Protocol: as §1

[10] = test system: Staphylococcus aureus 100 (ATCC 29213); assay: MIC by broth microdilution, SA 100
Protocol: as §1

[11] = Streptococcus pyogenes 712, class symbols, read-out: MIC S PYO 712
[12] = Staphylococcus epidermidis 835, class symbols, read-out: MIC SE 835
[13] = ATCC49619, Streptococcus pneumoniae 1195 (ATCC 49619), class symbols, read-out: MIC S PNE 1195
[14] = Staphylococcus epidermidis 831 (MRSE), class symbols
[15] = Staphylococcus aureus 757 (MRSA), class symbols
[16] = Enterococcus faecium 800, class symbols, read-out: MIC E FCM 800
[17] = ATCC29212, Enterococcus faecalis 101 (ATCC 29212), read-out: MIC E FC 101
[18] = ATCC29213, Staphylococcus aureus 100 (ATCC 29213), class symbols, read-out: MIC SA 100

| MIC [1] | MIC [2, 11] | MIC [3] | MIC [4, 12] | MIC [5] | MIC [6, 13] | MIC [7, 14] | MIC [8, 15] | MIC (Enterococcus faecium 800; [16]) | MIC [9, 17] | MIC [10, 18] | SMILES | MIC ([2]; Streptococcus pyogenes, 712, read-out: MIC S PYO 712) | MIC ([4]; Staphylococcus epidermidis, 835, read-out: MIC SE 835) | MIC ([6]; Streptococcus pneumoniae, ATCC49619, read-out: MIC S PNE 1195) | MIC ([7]; Staphylococcus epidermidis, MRSE) | MIC ([8]; Staphylococcus aureus, MRSA) | MIC (Enterococcus faecium 800; Enterococcus faecium, 800, read-out: MIC E FCM 800) | MIC ([9]; Enterococcus faecalis, ATCC29212, read-out: MIC E FC 101, Enterococcus faecalis 101 (ATCC 29212)) | MIC ([10]; Staphylococcus aureus, ATCC29213, read-out: MIC SA 100) |
| --- | --- | --- | --- | --- | --- | --- | --- | --- | --- | --- | --- | --- | --- | --- | --- | --- | --- | --- | --- |
| 0.01 to 0.5 µg/mL (≈ 0.00534 to 0.267 µM) | 0.01 to 0.5 µg/mL (≈ 0.00534 to 0.267 µM) | 4 to 8 µg/mL (≈ 2.14 to 4.27 µM) | 0.01 to 0.5 µg/mL (≈ 0.00534 to 0.267 µM) | 0.5 to 1 µg/mL (≈ 0.267 to 0.534 µM) | 0.01 to 0.5 µg/mL (≈ 0.00534 to 0.267 µM) | 0.01 to 0.5 µg/mL (≈ 0.00534 to 0.267 µM) | 0.01 to 0.5 µg/mL (≈ 0.00534 to 0.267 µM) | 0.01 to 0.5 µg/mL (≈ 0.00534 to 0.267 µM) | 0.01 to 0.5 µg/mL (≈ 0.00534 to 0.267 µM) | 0.01 to 0.5 µg/mL (≈ 0.00534 to 0.267 µM) | CCCCCCc1ccc(S(=O)(=O)NCCCCCCNCc2c(O)cc3c(c2O)-c2cc(ccc2O)[C@H]2NC(=O)[C@@H]4NC(=O)[C@H](CC(N)=O)NC(=O)[C@H](NC(=O)[C@@H](CC(C)C)NC)[C@H](O)c5ccc(c(Cl)c5)Oc5cc4cc(c5O[C@@H]4O[C@H](CO)[C@@H](O)[C@H](O)[C@H]4O[C@H]4C[C@](C)(NC(=O)[C@@H](C)N)[C@H](O)[C@H](C)O4)Oc4ccc(cc4Cl)[C@@H](O)[C@H](NC2=O)C(=O)N[C@@H]3C(=O)O)cc1 (atropisomer, axis not shown) [Compound 342] | – | – | – | – | – | – | – | – |
| 0.01 to 0.5 µg/mL (≈ 0.00526 to 0.263 µM) | 0.01 to 0.5 µg/mL (≈ 0.00526 to 0.263 µM) | 8 to 16 µg/mL (≈ 4.21 to 8.42 µM) | 0.01 to 0.5 µg/mL (≈ 0.00526 to 0.263 µM) | 1 to 2 µg/mL (≈ 0.526 to 1.05 µM) | 0.01 to 0.5 µg/mL (≈ 0.00526 to 0.263 µM) | 0.01 to 0.5 µg/mL (≈ 0.00526 to 0.263 µM) | 0.01 to 0.5 µg/mL (≈ 0.00526 to 0.263 µM) | 0.01 to 0.5 µg/mL (≈ 0.00526 to 0.263 µM) | 0.01 to 0.5 µg/mL (≈ 0.00526 to 0.263 µM) | 0.01 to 0.5 µg/mL (≈ 0.00526 to 0.263 µM) | CCCCCCc1ccc(S(=O)(=O)NCCCCCCNCc2c(O)cc3c(c2O)-c2cc(ccc2O)[C@H]2NC(=O)[C@@H]4NC(=O)[C@H](CC(N)=O)NC(=O)[C@H](NC(=O)[C@@H](CC(C)C)NC)[C@H](O)c5ccc(c(Cl)c5)Oc5cc4cc(c5O[C@@H]4O[C@H](CO)[C@@H](O)[C@H](O)[C@H]4O[C@H]4C[C@](C)(NC(=O)[C@H](N)C(C)C)[C@H](O)[C@H](C)O4)Oc4ccc(cc4Cl)[C@@H](O)[C@H](NC2=O)C(=O)N[C@@H]3C(=O)O)cc1 (atropisomer, axis not shown) [Compound 343] | – | – | – | – | – | – | – | – |
| 0.01 to 0.5 µg/mL (≈ 0.00522 to 0.261 µM) | 0.01 to 0.5 µg/mL (≈ 0.00522 to 0.261 µM) | 4 to 8 µg/mL (≈ 2.09 to 4.18 µM) | 0.01 to 0.5 µg/mL (≈ 0.00522 to 0.261 µM) | 1 to 2 µg/mL (≈ 0.522 to 1.04 µM) | 0.01 to 0.5 µg/mL (≈ 0.00522 to 0.261 µM) | 0.01 to 0.5 µg/mL (≈ 0.00522 to 0.261 µM) | 0.01 to 0.5 µg/mL (≈ 0.00522 to 0.261 µM) | 0.01 to 0.5 µg/mL (≈ 0.00522 to 0.261 µM) | 0.01 to 0.5 µg/mL (≈ 0.00522 to 0.261 µM) | 0.01 to 0.5 µg/mL (≈ 0.00522 to 0.261 µM) | CCCCCCc1ccc(S(=O)(=O)NCCCCCCNCc2c(O)cc3c(c2O)-c2cc(ccc2O)[C@H]2NC(=O)[C@@H]4NC(=O)[C@H](CC(N)=O)NC(=O)[C@H](NC(=O)[C@@H](CC(C)C)NC)[C@H](O)c5ccc(c(Cl)c5)Oc5cc4cc(c5O[C@@H]4O[C@H](CO)[C@@H](O)[C@H](O)[C@H]4O[C@H]4C[C@](C)(NC(=O)CCCCCN)[C@H](O)[C@H](C)O4)Oc4ccc(cc4Cl)[C@@H](O)[C@H](NC2=O)C(=O)N[C@@H]3C(=O)O)cc1 (atropisomer, axis not shown) [Compound 344] | – | – | – | – | – | – | – | – |
| 0.01 to 0.5 µg/mL (≈ 0.00537 to 0.269 µM) | 0.01 to 0.5 µg/mL (≈ 0.00537 to 0.269 µM) | > 16 µg/mL | 0.01 to 0.5 µg/mL (≈ 0.00537 to 0.269 µM) | 8 to 16 µg/mL (≈ 4.3 to 8.6 µM) | 0.01 to 0.5 µg/mL (≈ 0.00537 to 0.269 µM) | 0.01 to 0.5 µg/mL (≈ 0.00537 to 0.269 µM) | 0.01 to 0.5 µg/mL (≈ 0.00537 to 0.269 µM) | 0.01 to 0.5 µg/mL (≈ 0.00537 to 0.269 µM) | 0.01 to 0.5 µg/mL (≈ 0.00537 to 0.269 µM) | 0.01 to 0.5 µg/mL (≈ 0.00537 to 0.269 µM) | CCCCCOc1ccc(S(=O)(=O)NCCCCCCNCc2c(O)cc3c(c2O)-c2cc(ccc2O)[C@H]2NC(=O)[C@@H]4NC(=O)[C@H](CC(N)=O)NC(=O)[C@H](NC(=O)[C@@H](CC(C)C)NC)[C@H](O)c5ccc(c(Cl)c5)Oc5cc4cc(c5O[C@@H]4O[C@H](CO)[C@@H](O)[C@H](O)[C@H]4O[C@H]4C[C@](C)(NC(=O)CN)[C@H](O)[C@H](C)O4)Oc4ccc(cc4Cl)[C@@H](O)[C@H](NC2=O)C(=O)N[C@@H]3C(=O)O)cc1 (atropisomer, axis not shown) [Compound 345] | – | – | – | – | – | – | – | – |
| – | – | – | – | – | – | – | – | – | – | – | CCCCCOc1ccc(CCNC(=O)Oc2cc(O)c3c(c2)[C@@H](C(=O)NC2C4CC5CC(C4)CC2C5)NC(=O)[C@H]2NC(=O)[C@H](NC(=O)[C@@H]4NC(=O)[C@H](CC(N)=O)NC(=O)[C@H](NC(=O)[C@@H](CC(C)C)NC)[C@H](O)c5ccc(c(Cl)c5)Oc5cc4cc(c5O[C@@H]4O[C@H](CO)[C@@H](O)[C@H](O)[C@H]4O[C@H]4C[C@](C)(N)[C@H](O)[C@H](C)O4)Oc4ccc(cc4Cl)[C@H]2O)c2ccc(O)c-3c2)cc1 (stereo partly shown) [Compound 338] | 0.01 to 0.5 µg/mL (≈ 0.00551 to 0.275 µM) | 0.01 to 0.5 µg/mL (≈ 0.00551 to 0.275 µM) | 0.01 to 0.5 µg/mL (≈ 0.00551 to 0.275 µM) | 0.01 to 0.5 µg/mL (≈ 0.00551 to 0.275 µM) | 0.01 to 0.5 µg/mL (≈ 0.00551 to 0.275 µM) | 0.01 to 0.5 µg/mL (≈ 0.00551 to 0.275 µM) | 0.01 to 0.5 µg/mL (≈ 0.00551 to 0.275 µM) | 0.01 to 0.5 µg/mL (≈ 0.00551 to 0.275 µM) |
